Here are results for five molecules from PMC11885506, “Evaluation of a non-animal toolbox informed by adverse outcome pathways for human inhalation safety” (Frontiers in Toxicology, 2025).

“Also recorded” adds a separate entry of the source. Read-outs that look alike come from different tables or passages of the source.

For data set [1], the system named is MucilAir™-HF tissues. Put plainly: Mucin-5AC (Muc5AC) immunohistochemistry, goblet cells, MucilAir-HF model. The following applies: for % of Muc5AC area: average ± standard deviation. It is filed as cell-based, human. The method, then: (§1) Tissues were handled as recommended by manufacturer’s instruction.
The presence of goblet cells was assessed through immunohistochemistry analysis for mucin-5AC protein (Muc5AC) detection. IL-13 and cytomix were used as positive controls (see item 2.5.2 for additional details). On last day of experiment (day 12), cultures (n = 3 tissues/group) were rinsed in PBS and fixed by immersion in 4% formaldehyde for 20 min. Fixed tissues were embedded into paraffin, sectioned, and processed for staining on paraffin sections. The immunostaining of the sections was performed with the Benchmark automated platform (Ventana-Roche, Hoffmann-La Roche Ltd, Basel, Switzerland) and the Autostainer Link 48 (Agilent, Santa Clara, CA. United States) with the detection kit Ultraview DAB (DAB chromogeny, Hoffmann-La Roche Ltd). Sections were pre-treated using heat mediated antigen retrieval with sodium citrate buffer, pH 6, for 20 min. The section was then incubated with recombinant anti-mucin 5AC antibody (ab3649, Abcam) for 1 h at room temperature, followed by biotinylated secondary antibody (Dako) and HRP detection (HRP conjugated ABC system, Vector Laboratories), according to manufacturer’s instruction. The section was then counterstained with hematoxylin (Sigma-Aldrich) and mounted with DPX, a synthetic non-aqueous mounting medium for microscopy. Digital images of the slides were then acquired, and quantitative image analysis performed using Image Pro Plus 6.2 (Media Cybernetics) to quantify the goblet cells on a section. The whole images of stained sections were scanned, and an average 15 images/section were analysed. The results are the ratio between the mucin 5AC stained area and the total surface area of the epithelium on the section.

The subject of data set [2] is cystic fibrosis phenotype cells. Also on record: method as in Perez et al., 2007. The following applies: 20 µM for 3-5 days; ref Perez et al., 2007; cited from earlier work.
The test system of data set [3] is airway epithelial cell lines. The arrangement: method as in Nilsson et al., 2010. To be noted: 40 µM for 60 min, corrected and normal cell lines; ref Nilsson et al., 2010; cited from earlier work.
Data set [4] concerns primary human nasal epithelial cells. The arrangement: method as in Uchenna Agu et al., 1999. To be noted: ref Uchenna Agu et al., 1999, cited from earlier work.
Data set [5] deals with MucilAir™-HF tissues. Put plainly: Cilia beating frequency (CBF) analysis, MucilAir-HF model.
Protocol: The MucilAir™-HF system (EP11MD) and ready-to-use chemically-defined, serum-free culture medium (EP04AM) were obtained from Epithelix Sàrl (Geneva, Switzerland). Tissues were handled as recommended by manufacturer’s instruction. […] After differentiation for 42 up to 81 days at the air-liquid interface (ALI) under standard culture conditions (37°C ± 1°C in a humidified atmosphere of 5% ± 1% CO2 in air), tissues were washed 3 days before first exposure and each insert was inspected for beating cilia and mucus production. This washing step (one or twice with PBS) were performed to remove accumulated mucus and cell debris to minimize the risk of interference with the toxicity tests. Over 12-day experimental period, washing steps as well as media changes was performed every 2-3 days.
For toxicity testing performed over a 12-day experimental period, tissues were daily exposed to 3 different concentrations of each test material for 30 min or 6 h (for detailed information on each material see Table 1). […] Tissues were exposed by test materials via nebulization, liquid apical application, or liquid basal application. These differences in the exposure type were due to solubility of the test material, route of exposure (inhaled or systemic), or comparison with previous publications. […]
Data set [6] concerns A549 human lung adenocarcinoma cell line. To be noted: 0.1-5 µM for 3h; ref Guo et al., 2012; cited from earlier work.
Data set [7] concerns HBE16 airway epithelial cells. The following applies: 20 μM for 12h; ref Li et al., 2010; cited from earlier work.
Data set [8] has as its system EpiAirway-100 human upper respiratory tract epithelium model. The following applies: 25-125 mM for 24h; ref Balharry et al., 2008; cited from earlier work.
Data set [9] has as its system RLE-6TN rat lung epithelial cells. The following applies: 0.5 µM; ref Jiao et al., 2017; cited from earlier work.
Data set [10] deals with monocyte-derived macrophages (MDMs). To be noted: 20 µM; ref Zeng et al., 2021; cited from earlier work.
The subject of data set [11] is MucilAir™-HF tissues. Put plainly: Cytokine and chemokine measurements (Luminex), MucilAir-HF model. It is filed as cell-based, human. The following applies: MucilAir-HF. The method, then:
as §1
Basolateral medium samples of the tissue cultures were collected and stored at −80°C until analysis. The following cytokines/chemokines were quantified using customized Human Luminex® Discovery Assay kits (R&D Systems): chemokine (C-C motif) ligand (CCL) 2, CCL7, CCL26, C-X-C motif chemokine ligand (CXCL) 10, CXCL11, intercellular adhesion molecule-1 (ICAM-1), IL-1α, IL-6, IL-8, matrix metalloproteinase (MMP)-1, MMP-2, MMP-3, MMP-7, MMP-9, osteopontin, interferon (IFN)-γ, IL-1 receptor antagonist (IL-1Ra), urokinase-type plasminogen activator receptor (uPAR), tumour necrosis factor (TNF)-α, urokinase (uPA), serpin E1, tissue inhibitor of metalloproteinase 1 (TIMP-1), and TGF-β1. Samples were measured in technical triplicates according to the manufacturer’s recommendation using a Luminex Bio-Plex® 200 RUO System ([…]).

Data set [12] deals with EpiAlveolar™ tissues. Put plainly: Histology and immunohistochemistry, EpiAlveolar model, Laboratory 2. The following applies: Laboratory 2, 12-day period.
Protocol: To evaluate the quality of EpiAlveolar™ tissues over the 12-day experimental period, histological and immunohistochemistry assessments for detection of pan-cytokeratin, vimentin, aquaporin 5, pro-surfactant C, CD68, caspase-3, and/or αSMA were performed by Laboratories 1 and 2.
Tissues were kept in 10% phosphate buffered formalin at 4°C for up to 48 h. Samples were then fixed in 70% ethanol and two strips of membrane were trimmed from each sample, processed, and paraffin-embedded to be cut at 5 µm thick sections and mounted to glass slides. The slides were then dewaxed in xylene, hydrated using graded industrial methylated spirit (70-100%) and stained with H&E for light microscope analysis.
For immunohistochemistry analysis, tissue sections-containing microscope slides were obtained and processed using a Discovery Ultra Staining System (Roche), according to manufacturer’s instructions, except for anti-CD68 staining that was manually performed. The slides were incubated at 60°C for 8 min and then deparaffinized at 69°C for 24 min. After that, slides were incubated with inhibitor CM or peroxidase blocking solution (for anti-CD68 staining) for 8 min at room temperature. The slides were then incubated at room temperature with the following primary monoclonal antibodies, following manufacturer’s instructions: anti-α smooth muscle actin (αSMA) at 1:500 (Leica Microsystems Ltd), anti-CD68 at 1:3000 for macrophages (11192-T24, Sino Biological), anti-pro-surfactant C protein at 1:1000 (AB3786, Sigma-Aldrich), anti-caspase-3 at 1:10000 (AB4051, Abcam), anti-aquaporin 5 (31661, Invitrogen), anti-pan-cytokeratin for epithelial cells (760-2595, Roche), and anti-vimentin for mesenchymal cells (790-2917, Roche). […]
A board-certified pathologist evaluated the changes (epithelial thinning, separation/detachment areas, necrosis, collagen, and presence of apoptotic cells, myofibroblasts, and type II pneumocytes) using a semi-quantitative scoring system (Table 2).
The subject of data set [13] is cultured alveolar macrophages and epithelial cells. Also on record: method as in JOUNEAU et al., 2011. The following applies: 10 µg/mL for 48h, bacteria strain not specified; ref JOUNEAU et al., 2011; cited from earlier work.
For data set [14], the system named is primary human bronchial epithelial cells. Also on record: method as in Wu et al., 2010. The following applies: 1 μg/mL for 24h, bacteria strain not specified; ref Wu et al., 2010; cited from earlier work.
The mark [15] stands for this setting: 30 min/day exposure, day 12, High 1 concentration (third of the tested concentrations).
Setting [16] is: 30 min/day exposure, day 12, Low concentration (first of the tested concentrations).
[17] abbreviates: 30 min/day exposure, day 12, Medium concentration (second of the tested concentrations).
Where [18] appears, read: 6 h/day exposure, day 12, single tested concentration.

For the molecule `O=C(O)c1ccc(/C=C2\SC(=S)N(c3cccc(C(F)(F)F)c3)C2=O)cc1` [CFTRinh-172], the “Changes in Muc5AC protein expression (in words)” value in [1] was “not able to promote any changes; also recorded: did not induce expected increase in mucin secretion or Muc5AC protein expression”. Moreover, the entries for the “% of Muc5AC area” value in data set [1] (setting [15]), in data set [1] (setting [16]) and in data set [1] (setting [17]) were 6.93 ± 0.51%, 7.15 ± 1.06% and 11.01 ± 0.81%, respectively. For the same molecule, the “GM-CSF, IL-6 and/or IL-8 secretion levels” value in data set [2] is “no changes in granulocyte/macrophage colony-stimulating factor, IL-6 and/or IL-8 secretion levels”. In addition, the TEER values result in [3] is “time-dependent increase in TEER values”.

For the molecule `Cc1cc(O)ccc1Cl` [Chlorocresol, 4-Chloro-3-methylphenol], the CBF entry in [4] (0.005% w/ v for 1-20 min) was “reversible cilio-inhibitory effects by significantly decreasing CBF”; in [4] (0.1% w/v), “instantaneous and irreversible ciliostasis”. For the same molecule, the “% of Muc5AC area” value in [1] (setting [15]) came to 6.95 ± 0.30%; in data set [1] (setting [16]), 14.47 ± 0.87%; in data set [1] (setting [17]) it was 8.85 ± 1.77%. Moreover, the “Tissue functionality (CBF, MCC, mucin secretion) change (in words)” value in data set [5] was “not able to induce changes in tissue functionality (e.g. reduced CBF)”.

Regarding `CN1CCC[C@H]1c1cccnc1` [Nicotine], the “% of Muc5AC area” value in data set [1] (setting [15]) was 5.94 ± 1.90%; in data set [1] (setting [16]), 0.89 ± 0.62%; in data set [1] (setting [17]), 3.91 ±0.79%. The “Cytotoxicity (LDH release)” value in data set [6] is given as “did not trigger cytotoxicity”. Further, in [7], the “TNF-α, IL-8, IL-6 and MUC5AC supernatant protein and mRNA levels” value was “did not trigger changes in TNF-α, IL-8, IL-6 and MUC5AC supernatant protein and mRNA levels”. Besides, the “TEER values (integrity of the epithelial membrane)” value in data set [8] was “biphasic response with a large and significant increase of TEER values at low concentrations followed by a steady decrease at higher concentrations”.

Take `C[S+]([O-])CCCCN=C=S` (stereo not drawn) [Sulforaphane, R,S-Sulforaphane]: the “% of Muc5AC area” value in data set [1] (setting [15]) stood at 5.04 ± 0.71%; in data set [1] (setting [16]), 3.74 ± 0.71%; in data set [1] (setting [17]), 9.38 ± 0.80%; in data set [1] (setting [18]) it was 2.55 ± 0.62%. Moreover, the “Protection from cigarette smoke extract-induced oxidative damage” value in data set [9] was “protect from cigarette smoke extract-induced oxidative damage”. Moreover, in data set [10], the Anti-inflammatory activity result is “anti-inflammatory activity by suppressing the expression of Toll-like receptors (TLR2 and TLR4)”.

“Lipopolysaccharide from Pseudomonas aeruginosa 10 [LPS]”: the “Cytokines/chemokines modulated (in words)” value in [11] (30 min/day exposure) was “did not promote modulation of the different cytokines/chemokines”; in data set [11] (6 h/day exposure), “increased levels of proteins involved in the inflammatory response (e.g., IL-6, IL-8, and TNF-α) and degradation of extracellular matrix/fibrosis (e.g., MMP-3 and uPAR)”. For the same molecule, in data set [12], the “Histological changes compared to vehicle and control groups (in words)” value is on record as “changes were not observed”. Besides, the “% of Muc5AC area” value in [1] (setting [15]) is reported as 4.28 ± 0.76%; in [1] (setting [16]), 2.87 ± 0.77%; in data set [1] (setting [17]) it was 4.30 ± 0.90%; in [1] (setting [18]), 1.58 ± 0.40%. In addition, the “MMP-9 supernatant levels and mRNA transcripts” value in [13] is “significant increase in MMP-9 supernatant levels and mRNA transcripts”. Besides, in [14], the “IL-6 and IL-8 protein and mRNA transcripts levels” value was “significant increase of IL-6 and IL-8 protein and mRNA transcripts levels”.
